Reference: PMC5327470, “Discovery and Optimization of Novel 5-Indolyl-7-arylimidazo[1,2-a]pyridine-8-carbonitrile Derivatives as Potent Antitubulin Agents Targeting Colchicine-binding Site” (Scientific Reports, 2017)

Experiments:
[1] = tested on: A549 (human lung carcinoma); experiment: MTT antiproliferative assay, A549; assay type: cell-based; settings: 72 h, mean ± SD
Description: (§1) To evaluate the antiproliferative activity, all synthesized derivatives (5a–5v and 7a–7h) were investigated for their activity in vitro against a panel of cancer cell lines including HT-29 (human colon cancer), H460 (human lung cancer), A549 (human lung carcinoma), MKN-45 (human gastric cancer) and SMMC-7721 (human liver cancer) by MTT assay. CA-4 and Crolibulin were served as positive control, and the results expressed as half-maximal inhibitory concentration (IC50). IC50 values are the concentrations that cause 50% inhibition of cancer cell growth (μM). Data represent the mean values ± standard deviation (SD) of independent experiments performed in triplicate.
(§2) Cell lines and culture conditions.The human colon carcinoma cell line HT-29, the human pulmonary carcinoma cell line A549, the human gastric carcinoma cell line MKN-45, the human breast cancer cell line MDA-MB-231 and human heptocarcinoma cellline SMMC-7721were cultured in RPMI-1640 mediumcontaining 10% FBS, 100 U/mL streptomycin and 100 U/mL penicillinat 37 °C in humidified atmosphere with 5% CO2. All of the cells were purchased from the American Type Culture Collection (ATCC, Manassas, VA).
(§3) The antiproliferative activities in vitro of Crolibulin and all the target compounds were determined by an MTT assay. Briefly, cells were seeded into 96-well plates at a density of 1–3 × 10^4/well (depends on the cell growth rate). 24 h later, triplicate wells were treated with media and the agents. After 72 h ofincubation at 37 °C in 5% CO2, the drug containing medium wasremoved and replaced by 100 mL of fresh medium with 5 mg/mLMTT solution. After 4 h of incubation, the medium with MTT was removed, and […] of DMSO was added to each well. The plates were gently agitated until the purple formazan crystals were dissolved, and the OD490 was determinedusing a microplate reader (MK3, Thermo, Germany). The data were calculated and plotted as the percent viability compared to the control. The 50% inhibitory concentration (IC50) was defined as theconcentration that reduced the absorbance of the untreated wells by 50% of the vehicle in the MTT assay.

[2] = tested on: SMMC-7721 (human liver cancer); experiment: MTT antiproliferative assay, SMMC-7721; assay type: cell-based; settings: 72 h, mean ± SD
Description: Data represent the mean values ± standard deviation (SD) of independent experiments performed in triplicate.
All of the cells were purchased from the American Type Culture Collection (ATCC, Manassas, VA).
as §3, with “After 72 h ofincubation at 37 °C in 5% CO2, the drug containing medium wasremoved and replaced by 100 mL of fresh medium with 5 mg/mLMTT solution.” left out, “control.” for “control. The 50% inhibitory concentration (IC50) was defined as theconcentration that reduced the absorbance of the untreated wells by 50% of the vehicle in the MTT assay.”

[3] = tested on: human fetal hepatocyte line L02; experiment: MTT assay on normal cell line L02; assay type: cell-based; settings: non-cancer cell line
Description: The drug candidate potency depends not only on its cytotoxicity in malignant cells, but also on its relative lack of toxicity toward normal cells.
as §3

[4] = tested on: MKN-45 (human gastric cancer); experiment: MTT antiproliferative assay, MKN-45; assay type: cell-based; settings: 72 h, mean ± SD, read-out: IC50 (μM) ±SD MKN45
Description: as §1, §2, §3

[5] = tested on: H460 (human lung cancer); experiment: MTT antiproliferative assay, H460; assay type: cell-based; settings: Homo sapiens, MTT, 72 h, mean ± SD
Description: as §1, §3

[6] = tested on: HT-29 (human colon cancer); experiment: MTT antiproliferative assay, HT-29; assay type: cell-based; settings: for IC50: Homo sapiens, HT-29, MTT, 72 h, mean ± SD, read-out: IC50 (μM) ±SD HT29
Description: as §1, §2, §3

[7] = tested on: HT-29, H460, A549, MKN-45 and SMMC-7721 cell lines; experiment: MTT antiproliferative assay, panel of five cancer cell lines; assay type: cell-based, human; settings: ratio of IC50 values
Description: IC50 values are the concentrations that cause 50% inhibition of cancer cell growth (μM). Data represent the mean values ± standard deviation (SD) of independent experiments performed in triplicate.
as §3

[8] = tested on: microtubules in HT-29 cells; experiment: Immunofluorescence staining of microtubule network; assay type: cell-based, human; settings: HT-29, 20 nM, 12 h, anti-α-tubulin immunostaining
Description: After incubation, cells were fixed, reacted with monoclonal anti-tubulin antibody at 4 °C overnight and then reacted with fluorescein isothiocyanate (FITC) conjugated secondary antibody, DAPI was used for nuclear counter-staining, the cellular microtubules were observed under fluorescence microscope (scale bar = 20 μm).
The HT-29 cells were seeded at 1 × 10^4 per well on a 24 wellplate and grown for 24 h. […] Cells in the control group were treated with culture medium. The control and treated cells were fixed with 4% formaldehydein PBS for 30 min at −20 °C, then washed twice with PBS and permeabilized with 0.1% (v/v) Triton X-100 in PBS for 5 min. Then, the cells were blocked with 3% bovine serum albumin(BSA) in PBS for 30 min. The primary α-tubulin antibody wasdiluted (1:100) with 2% BSA in PBS and incubated overnight at 4 °C. The cells were washed with PBS to remove unbound primaryantibody and then cells were incubated with FITC-conjugated antimousesecondary antibody, diluted (1:100) with 2% BSA in PBS, for 2 h at 37 °C. The cells were washed with PBS to remove unbound secondary antibody, nucleus was stained with 4,6-diamino-2-phenolindoldihydrochloride (DAPI) and then, immunofluorescencewas detected using a fluorescence microscope (Olympus,Tokyo, Japan).

[9] = tested on: tubulin, colchicine site; experiment: Colchicine competition (competitive tubulin-binding) assay; settings: 0, 1.6, 5 and 15 μM, 1 h at 37 °C, then 5 μM colchicine
Description: Figure 6 Colchicine competition assay. […] The fluorescence was measured by Hitachi F-2500 spectrofluorometer.
Then colchicine was added to a final concentration of 5 μM[43]. Fluorescence was determined using a Hitachi F-2500 spectrofluorometer (Tokyo, Japan) at excitation wavelengths of 365 nm and emission wavelengths of 435 nm. Blank values (buffer alone) as background were subtracted from all samples. […] Taxol, not binding in the colchicine-site of tubulin, was added as a negative control.

Structure (SMILES) | IC50 [1] [µM] | IC50 [2] [µM] | effect on normal cell L02 [3] | melting point [°C] | IC50 [4] [µM] | IC50 ([5]; NCI-H460, 72 h) [µM] | IC50 [6] [µM] | fold increased potency over 5a (H), 5c (3-OMe) and 5d (4-OMe) [7] | fold more active than CA-4 on HT-29 ([6]; ratio of IC50 values) [fold] | fold more active than Crolibulin on HT-29 cell ([6]; ratio of IC50 values) | IC50 ([5]; NCI-H460) [µM] | effect on microtubule network [8] | effect on intrinsic fluorescence of colchicine-tubulin complex [9]
Cc1ccccc1-c1cc(-c2c[nH]c3ccccc23)n2ccnc2c1C#N [5b, 5-(1H-indol-3-yl)-7-(o-tolyl)imidazo[1,2-a]pyridine-8-carbonitrile] | 0.23 ± 0.04 | 0.82 ± 0.06 | negligible effects | 334.3 to 335.1 | 1.52 ± 0.15 | 46.3 ± 5.26 | 0.16 ± 0.04 |  |  |  |  |  | 
N#Cc1c(-c2ccccc2F)cc(-c2c[nH]c3ccccc23)n2ccnc12 [5e, 7-(2-fluorophenyl)-5-(1H-indol-3-yl)imidazo[1,2-a]pyridine-8-carbonitrile] | 5.67 ± 0.23 | 26.2 ± 2.82 |  | 304.6 to 308.8 | 0.96 ± 0.06 | 1.16 ± 0.12 | 0.09 ± 0.01 | at least 1.7 fold |  |  |  |  | 
N#Cc1c(-c2ccccc2Cl)cc(-c2c[nH]c3ccccc23)n2ccnc12 [5f, 7-(2-chlorophenyl)-5-(1H-indol-3-yl)imidazo[1,2-a]pyridine-8-carbonitrile] | 0.95 ± 0.07 | 13.8 ± 2.23 | negligible effects | 296.7 to 300.1 | 0.38 ± 0.06 | 0.18 ± 0.08 | 0.07 ± 0.004 | at least 1.7 fold |  |  |  |  | 
CCNCc1cn2c(-c3c[nH]c4ccccc34)cc(-c3ccc(F)cc3Cl)c(C#N)c2n1 [7b, 7-(2-chloro-4-fluorophenyl)-2-((ethylamino)methyl)-5-(1H-indol-3-yl)imidazo[1,2-a]pyridine-8-carbonitrile] | 3.54 ± 0.41 | 21.6 ± 3.16 |  | 170.7 to 172.6 | 20.5 ± 2.32 | 0.96 ± 0.06 | 0.03 ± 0.003 |  | ~1.7 | about 17 fold |  |  | 
CC(C)NCc1cn2c(-c3c[nH]c4ccccc34)cc(-c3ccc(F)cc3Cl)c(C#N)c2n1 [7c, 7-(2-chloro-4-fluorophenyl)-5-(1H-indol-3-yl)-2-((isopropylamino)methyl)imidazo[1,2-a]pyridine-8-carbonitrile] | 6.18 ± 0.71 | 36.7 ± 4.92 |  | 222.2 to 225.3 | 22.4 ± 2.51 | 0.96 ± 0.07 | 0.33 ± 0.04 |  |  |  |  |  | 
CN(C)Cc1cn2c(-c3c[nH]c4ccccc34)cc(-c3ccc(F)cc3Cl)c(C#N)c2n1 [7d, 7-(2-chloro-4-fluorophenyl)-2-((dimethylamino)methyl)-5-(1H-indol-3-yl)imidazo[1,2-a]pyridine-8-carbonitrile] | 7.53 ± 0.63 | 22.1 ± 3.41 |  | 175.4 to 178.4 | 16.6 ± 1.13 | 0.71 ± 0.05 | 0.19 ± 0.02 |  |  |  |  |  | 
CCN(CC)Cc1cn2c(-c3c[nH]c4ccccc34)cc(-c3ccc(F)cc3Cl)c(C#N)c2n1 [7e, 7-(2-chloro-4-fluorophenyl)-2-((diethylamino)methyl)-5-(1H-indol-3-yl)imidazo[1,2-a]pyridine-8-carbonitrile] | 4.87 ± 0.38 | 24.6 ± 2.73 |  | 181.2 to 184.5 | 13.8 ± 1.79 | 0.67 ± 0.05 | 0.21 ± 0.03 |  |  |  |  |  | 
CC1CCN(Cc2cn3c(-c4c[nH]c5ccccc45)cc(-c4ccc(F)cc4Cl)c(C#N)c3n2)CC1 [7f, 7-(2-chloro-4-fluorophenyl)-5-(1H-indol-3-yl)-2-((4-methylpiperidin-1-yl)methyl)imidazo[1,2-a]pyridine-8-carbonitrile] | 20.3 ± 2.32 | 11.3 ± 2.15 |  | 185.7 to 187.9 | 1.63 ± 0.28 | 0.85 ± 0.06 | 0.56 ± 0.07 |  |  |  |  |  | 
N#Cc1c(-c2ccc(F)cc2Cl)cc(-c2c[nH]c3ccccc23)n2cc(CN3CCCC3)nc12 [7g, 7-(2-chloro-4-fluorophenyl)-5-(1H-indol-3-yl)-2-(pyrrolidin-1-ylmethyl)imidazo[1,2-a]pyridine-8-carbonitrile] | 8.79 ± 0.62 | 42.6 ± 4.12 |  | 195 to 199.7 | 19.2 ± 1.35 | 1.32 ± 0.12 | 0.19 ± 0.02 |  |  |  |  |  | 
N#Cc1c(-c2ccc(F)cc2Cl)cc(-c2c[nH]c3ccccc23)n2cc(CN3CCOCC3)nc12 [7h, 7-(2-chloro-4-fluorophenyl)-5-(1H-indol-3-yl)-2-(morpholinomethyl)imidazo[1,2-a]pyridine-8-carbonitrile] | 16.9 ± 1.98 | 28.7 ± 1.79 |  | 201.3 to 203.5 | 36.3 ± 5.15 | 1.27 ± 0.14 | 0.92 ± 0.14 |  |  |  |  |  | 
COc1ccc(/C=C\c2cc(OC)c(OC)c(OC)c2)cc1O [CA-4, Combretastatin A-4, reference compound] | 0.43 ± 0.053 | 1.92 ± 0.11 |  |  | 0.11 ± 0.02 |  | 0.05 ± 0.01 |  |  |  | 0.08 ± 0.01 | cellular microtubule depolymerization | 
CC(=O)O[C@H]1C(=O)[C@@]2(C)[C@H]([C@H](OC(=O)c3ccccc3)[C@]3(O)C[C@H](OC(=O)[C@H](O)[C@@H](NC(=O)c4ccccc4)c4ccccc4)C(C)=C1C3(C)C)[C@]1(OC(C)=O)CO[C@@H]1C[C@@H]2O [Taxol, reference compound] |  |  |  |  |  |  |  |  |  |  |  |  | scarcely effect
